The target of this test is T1, dihydroorotate dehydrogenase (DHODH) (Homo sapiens, UniProt Q02127).
T1 construct: N-terminal His-tagged DHODH/ΔTM; Met29–Arg395
Briefly: DCIP reduction enzyme assay with recombinant human DHODH. It is filed as biochemical.

Structures are written as SMILES.

A word on the IC50: it is the concentration at which inhibition is half-maximal.

T1 sequence (Q02127 29-395): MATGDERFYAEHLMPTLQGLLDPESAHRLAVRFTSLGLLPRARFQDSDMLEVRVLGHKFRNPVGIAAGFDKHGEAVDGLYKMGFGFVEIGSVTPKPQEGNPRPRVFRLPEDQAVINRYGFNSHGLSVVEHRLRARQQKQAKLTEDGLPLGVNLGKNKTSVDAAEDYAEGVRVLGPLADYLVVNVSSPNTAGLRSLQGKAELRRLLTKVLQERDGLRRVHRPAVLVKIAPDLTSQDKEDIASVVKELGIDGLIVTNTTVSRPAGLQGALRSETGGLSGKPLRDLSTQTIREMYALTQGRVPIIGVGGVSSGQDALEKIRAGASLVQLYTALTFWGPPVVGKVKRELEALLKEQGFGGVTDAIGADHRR

Regarding `Cc1cc(=O)oc2c1ccc1oc(C(O)c3ccccc3)c(-c3ccccc3)c12` (centres unmarked) [H-006, 8-(Hydroxyphenylmethyl)-4-methyl-9-phenyl-2H-furo[2,3-h]-1-benzopyran-2-one], the IC50 is 3.8 nM.
Turning to `Cc1cc(=O)oc2c1ccc1oc(C(=O)c3ccccc3)c(-c3ccccc3)c12` [NPD723, 8-Benzoyl-4-methyl-9-phenyl-2H-furo[2,3-h]-1-benzopyran-2-one], the IC50 stood at 1520 nM.

(Values after publication PMC10513951, “Identification of a dihydroorotate dehydrogenase inhibitor that inhibits cancer cell growth by proteomic profiling” (Oncology Research, 2023).)
